# Results reported in US8367668B2, “Pyridazinone derivatives” (Merck Patent Gesellschaft mit Beschränkter Haftung, priority 2007, dated 2013).
# Target: T1, Met kinase (Homo sapiens, UniProt P08581)
# T1 construct: 6His (N); purchased Upstate 14-526; host or cells: Sf21 insect cells (S. frugiperda), baculovirus
# Experiment: Met kinase inhibition (enzyme assay), flashplate method
# Type: biochemical
# Source text: Measurement of Met Kinase Activity
# According to the manufacturer's data (Met, active, upstate, catalogue No. 14-526), Met kinase is expressed for the purposes of protein production in insect cells (Sf21; S. frugiperda) and subsequent affinity-chromatographic purification as “N-terminal 6His-tagged” recombinant human protein in a baculovirus expression vector.
# The kinase activity can be measured using various available measurement systems. In the scintillation proximity method (Sorg et al., J. of Biomolecular Screening, 2002, 7, 11-19), the flashplate method or the filter binding test, the radioactive phosphorylation of a protein or peptide as substrate is measured using radioactively labelled ATP (^32P-ATP, ^33P-ATP). In the case of the presence of an inhibitory compound, a reduced radioactive signal, or none at all, can be detected. Furthermore, homogeneous time-resolved fluorescence resonance energy transfer (HTR-FRET) and fluoroescence polarisation (FP) technologies can be used as assay methods (Sills et al., J. of Biomolecular Screening, 2002, 191-214).
# Flashplate Method (Met Kinase)
# The test plates used are 96-well Flashplate® microtitre plates from Perkin Elmer (Cat. No. SMP200). The components of the kinase reaction described below are pipetted into the assay plate. The Met kinase and the substrate poly Ala-Glu-Lys-Tyr, (pAGLT, 6:2:5:1), are incubated for 3 hrs at room temperature with radioactively labelled ^33P-ATP in the presence and absence of test substances in a total volume of 100 μl. The reaction is terminated using 150 μl of a 60 mM EDTA solution. After incubation for a further 30 min at room temperature, the supernatants are filtered off with suction, and the wells are washed three times with 200 μl of 0.9% NaCl solution each time. The measurement of the bound radioactivity is carried out by means of a scintillation measuring instrument (Topcount NXT, Perkin-Elmer).
# The full value used is the inhibitor-free kinase reaction. This should be approximately in the range 6000-9000 cpm. The pharmacological zero value used is staurosporin in a final concentration of 0.1 mM. The inhibitory values (IC50) are determined using the RS1_MTS program.
# Kinase reaction conditions per well: • 30 μl of assay buffer • 10 μl of substance to be tested in assay buffer with 10% of DMSO • 10 μl of ATP (final concentration 1 μM cold, 0.35 μCi of ^33P-ATP) • 50 μl of Met kinase/substrate mixture in assay buffer; • (10 ng of enzyme/well, 50 ng of pAGLT/well)
# 50 mM HEPES • 3 mM magnesium chloride • 3 μM sodium orthovanadate • 3 mM manganese(II) chloride • 1 mM dithiothreitol (DTT)
# pH=7.5 (to be set using sodium hydroxide)
# 60 mM Titriplex III (EDTA)
# Met kinase: Upstate, Cat. No. 14-526, Stock 1 μg/10 μl; spec. activity 954 U/mg;
# Poly-Ala-Glu-Lys-Tyr, 6:2:5:1: Sigma Cat. No. P1152
# Pharmacological Data Met Kinase Inhibitions (Enzyme Assay)
# T1 sequence (P08581 974-1390 limits assumed): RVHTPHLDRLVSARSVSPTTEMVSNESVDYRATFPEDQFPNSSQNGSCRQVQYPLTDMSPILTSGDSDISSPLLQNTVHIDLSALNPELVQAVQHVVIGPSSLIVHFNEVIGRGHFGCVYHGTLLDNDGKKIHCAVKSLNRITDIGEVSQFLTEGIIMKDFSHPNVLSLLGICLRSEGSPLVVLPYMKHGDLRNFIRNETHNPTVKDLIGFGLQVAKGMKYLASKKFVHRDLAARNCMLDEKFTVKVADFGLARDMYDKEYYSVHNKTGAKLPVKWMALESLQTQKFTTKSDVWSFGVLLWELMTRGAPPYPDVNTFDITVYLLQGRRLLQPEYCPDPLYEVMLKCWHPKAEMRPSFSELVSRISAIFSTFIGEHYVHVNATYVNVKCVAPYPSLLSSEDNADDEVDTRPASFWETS
row,IC50 [nM],SMILES
1,10 to 1000,CCOC(=O)Nc1cccc(Cn2nc(-c3ccc(CNC(=O)CCN(C)C)cc3)ccc2=O)c1 [A83]
2,10 to 1000,CCOC(=O)Nc1cccc(Cn2nc(-c3ccc(CNC(=O)CCOC)cc3)ccc2=O)c1 [A84]
3,10 to 1000,CCOC(=O)Nc1cccc(Cn2nc(-c3ccc(CNC(=O)CO)cc3)ccc2=O)c1 [A85]
4,10 to 1000,CCOC(=O)Nc1cccc(Cn2nc(-c3ccc(CNC(=O)CN4CCN(C(=O)OC(C)(C)C)CC4)cc3)ccc2=O)c1 [A86]
5,10 to 1000,CCOC(=O)Nc1cccc(Cn2nc(-c3ccc(CNC(=O)CCN4CCCCC4)cc3)ccc2=O)c1 [A87]
6,10 to 1000,CCOC(=O)Nc1cccc(Cn2nc(-c3cccc(CNC(=O)CNC(C)=O)c3)ccc2=O)c1 [A93]
7,10 to 1000,CCOC(=O)Nc1cccc(Cn2nc(-c3cccc(CNC(=O)Cn4ccccc4=O)c3)ccc2=O)c1 [A94]
8,10 to 1000,CCOC(=O)Nc1cccc(Cn2nc(-c3cccc(CNC(=O)Cn4cnnn4)c3)ccc2=O)c1 [A95]
9,10 to 1000,CCOC(=O)Nc1cccc(Cn2nc(-c3cccc(CNC(=O)Cc4nnn[nH]4)c3)ccc2=O)c1 [A96]
10,10 to 1000,CCOC(=O)Nc1cccc(Cn2nc(-c3cccc(CNC(=O)CNC(=O)OC(C)(C)C)c3)ccc2=O)c1 [A97]
11,10 to 1000,CCOC(=O)Nc1cccc(Cn2nc(-c3cccc(CNC(=O)CN4CCOCC4)c3)ccc2=O)c1 [A98]
12,10 to 1000,CCOC(=O)Nc1cccc(Cn2nc(-c3cccc(CNC(=O)COC)c3)ccc2=O)c1 [A99]
13,10 to 1000,CCOC(=O)Nc1cccc(Cn2nc(-c3cccc(CNC(=O)CCOC)c3)ccc2=O)c1 [A100]
14,10 to 1000,CCOC(=O)Nc1cccc(Cn2nc(-c3cccc(CNC(=O)CO)c3)ccc2=O)c1 [A101]
15,10 to 1000,CCOC(=O)Nc1cccc(Cn2nc(-c3cccc(CNC(=O)CN(C)C)c3)ccc2=O)c1 [A102]
16,10 to 1000,CCOC(=O)Nc1cccc(Cn2nc(-c3cccc(CNC(=O)CCN(C)C)c3)ccc2=O)c1 [A103]
17,10 to 1000,CCOC(=O)Nc1cccc(Cn2nc(-c3cccc(CNC(=O)CCNC=O)c3)ccc2=O)c1 [A104]
18,10 to 1000,CCOC(=O)Nc1cccc(Cn2nc(-c3cccc(CNC(=O)CCO)c3)ccc2=O)c1 [A105]
19,10 to 1000,CCOC(=O)Nc1cccc(Cn2nc(-c3cccc(CNC(=O)CN4CCN(C)CC4)c3)ccc2=O)c1 [A106]
20,10 to 1000,CCOC(=O)Nc1cccc(Cn2nc(-c3cccc(CNC(=O)CCN(CC)CC)c3)ccc2=O)c1 [A107]
21,10 to 1000,CCOC(=O)Nc1cccc(Cn2nc(-c3cccc(CNC(=O)CCN4CCN(C(=O)OC(C)(C)C)CC4)c3)ccc2=O)c1 [A108]
22,10 to 1000,CCOC(=O)Nc1cccc(Cn2nc(-c3cccc(CNC(=O)CCN4CCCCC4)c3)ccc2=O)c1 [A109]
23,10 to 1000,CCOC(=O)Nc1cccc(Cn2nc(-c3cccc(CNC(=O)CN4CCCCC4)c3)ccc2=O)c1 [A110]
24,10 to 1000,"CCOC(=O)Nc1cccc(Cn2nc(-c3cccc(CO)c3)ccc2=O)c1 [A122, ethyl{3-[3-(3-hydroxymethylphenyl)-6-oxo-6H-pyridazin-1-ylmethyl]phenyl}carbamate]"

row,IC50 [nM],SMILES
1,10 to 1000,"CCOC(=O)Nc1cccc(Cn2nc(-c3ccc(CO)cc3)ccc2=O)c1 [A123, ethyl{3-[3-(4-hydroxymethylphenyl)-6-oxo-6H-pyridazin-1-ylmethyl]phenyl}carbamate]"
2,10 to 1000,"CCOC(=O)Nc1cccc(Cn2nc(-c3ccc(C(=O)NCCCCN)cc3)ccc2=O)c1 [A129, ethyl(3-{3-[4-(4-aminobutylcarbamoyl)phenyl]-6-oxo-6H-pyridazin-1-ylmethyl}phenyl)carbamate]"
3,10 to 1000,CCOC(=O)Nc1cccc(Cn2nc(-c3ccc(C(=O)NCCCN)cc3)ccc2=O)c1 [A130]
4,10 to 1000,CCOC(=O)Nc1cccc(Cn2nc(-c3ccc(CNC(=O)CCN)cc3)ccc2=O)c1 [A131]
5,10 to 1000,CCOC(=O)Nc1cccc(Cn2nc(-c3ccc(C(=O)NCCN)cc3)ccc2=O)c1 [A132]
6,10 to 1000,CCOC(=O)Nc1cccc(Cn2nc(-c3cccc(CNC(=O)CN)c3)ccc2=O)c1 [A133]
7,10 to 1000,CCOC(=O)Nc1cccc(Cn2nc(-c3ccc(CNC(=O)CN)cc3)ccc2=O)c1 [A134]
8,10 to 1000,CCOC(=O)Nc1cccc(Cn2nc(-c3cccc(CNC(=O)CCN)c3)ccc2=O)c1 [A135]
9,10 to 1000,CCOC(=O)Nc1cccc(Cn2nc(-c3cccc(C(=O)NCCCCN)c3)ccc2=O)c1 [A136]
10,10 to 1000,CCOC(=O)Nc1cccc(Cn2nc(-c3cccc(C(=O)NCCCN)c3)ccc2=O)c1 [A137]
11,10 to 1000,CCOC(=O)Nc1cccc(Cn2nc(-c3cccc(C(=O)NCCN)c3)ccc2=O)c1 [A138]
12,10 to 1000,CCOC(=O)Nc1cccc(Cn2nc(-c3cccc(CC(=O)NCCCCN)c3)ccc2=O)c1 [A139]
13,10 to 1000,CCOC(=O)Nc1cccc(Cn2nc(-c3cccc(CC(=O)NCCCN)c3)ccc2=O)c1 [A140]
14,10 to 1000,CCOC(=O)Nc1cccc(Cn2nc(-c3cccc(CC(=O)NCCN)c3)ccc2=O)c1 [A141]
15,10 to 1000,CCOC(=O)Nc1cccc(Cn2nc(-c3ccc(CNC(=O)CCN4CCNCC4)cc3)ccc2=O)c1 [A142]
16,10 to 1000,CCOC(=O)Nc1cccc(Cn2nc(-c3ccc(CNC(=O)CN4CCNCC4)cc3)ccc2=O)c1 [A143]
17,10 to 1000,CCOC(=O)Nc1cccc(Cn2nc(-c3cccc(CNC(=O)CN4CCNCC4)c3)ccc2=O)c1 [A144]
18,10 to 1000,CCOC(=O)Nc1cccc(Cn2nc(-c3cccc(CNC(=O)CCN4CCNCC4)c3)ccc2=O)c1 [A145]
19,10 to 1000,CCOC(=O)Nc1cccc(Cn2nc(-c3ccc(CC(=O)NCCCCN)cc3)ccc2=O)c1 [A146]
20,10 to 1000,CCOC(=O)Nc1cccc(Cn2nc(-c3ccc(CC(=O)NCCN)cc3)ccc2=O)c1 [A147]
21,10 to 1000,CCOC(=O)Nc1cccc(Cn2nc(-c3ccc(CC(=O)NCCCN)cc3)ccc2=O)c1 [A148]
22,10 to 1000,"CCOC(=O)Nc1cccc(Cn2nc(-c3ccc(-c4noc(C)n4)cc3)ccc2=O)c1 [A163, ethyl(3-{3-[4-(5-methyl-1,2,4-oxadiazol-3-yl)phenyl]-6-oxo-6H-pyridazin-1-ylmethyl}phenyl)carbamate]"
23,10 to 1000,"CCOC(=O)Nc1cccc(Cn2nc(-c3ccc(CN(Cc4ncc[nH]4)Cc4ncc[nH]4)cc3)ccc2=O)c1 [A171, ethyl{3-[3-(4-{[bis(1H-imidazol-2-ylmethyl)amino]methyl}-phenyl)-6-oxo-6H-pyridazin-1-ylmethyl]phenyl}carbamate]"
24,10 to 1000,"CCOC(=O)Nc1cccc(Cn2nc(-c3ccc(-c4nnn[nH]4)cc3)ccc2=O)c1 [A172, ethyl(3-{6-oxo-3-[4-(1H-tetrazol-5-yl)phenyl]-6H-pyridazin-1-ylmethyl}phenyl)carbamate]"
